Read-outs that look alike come from different tables or passages of the source. Values belong to the compound of their own block, whether it stands above or below them.
How the values were obtained:
Male C57BL/6J mice [1] = details: one week after LC ligation, severe flow reduction
Text: (§1) Briefly, the distal left common carotid artery (LC) artery and its bifurcation into the external and internal carotid were exposed using blunt dissection. 9-0 nylon sutures (USSC Sutures, Norwalk, Conn.) were used to ligate the EC artery, incisions were closed (7-0 polypropylene) and mice were left to recover. Severe reduction in flow was achieved by ligating the LC artery just proximal to the external/internal carotid artery bifurcation. Five μm cross sections were used from parallel regions of RC and LC that were isolated in 5 millimeter (mm) blocks proximal to the ligation, until reaching a parallel point at the RC artery branchpoint with the right subclavian artery. […] Mice that developed thrombosis were excluded from the analysis. […] Urine was collected from individual mice using metabolic cages at four weeks of age, and again after a four week period of treatment, subsequent to either moderate or severe flow reduction. Urine samples were frozen at −20° for analysis.

Male C57BL/6J mice [2] = test system: Male C57BL/6J mice
Experimental: (§2) Animals: All animal studies were performed according to protocols approved by the Institutional Committee for Use and Care of Laboratory Animals. Male C57BL/6J mice, aged four to six weeks were used for the flow reduction models. The parental background strain of the male, four to six week old donor mice in the transplant studies was also C57BL/6J (H2b). The background of the recipient mice was C3H(H2k) (Taconic Farms Inc, Germantown, N.Y.).
Urine was collected over a 24 hour period in metabolic cages (Nalgene Labware, Deepwater, N.J.) with vehicle or nimesulide allowed ad libitum. Urinary levels of prostanoid metabolites were measured by stable isotope dilution methods as previously described. […] A urine aliquot (0.1 ml) was used for measurement of creatinine by an automated colorimetric assay (Sigma-Aldrich Co., St Louis, Mo.).
as §1

Male C57BL/6J mice [3] = details: nimesulide
Experimental: as §2, §1

[4] = test system: mouse aortic smooth muscle cells (MASMC); assay: H2O2-induced 8,12-iso-iPF2α-VI generation in MASMC; format: cell-based
Experimental: (§3) Mouse aortic smooth muscle cells (MASMCs): Primary aortic smooth muscle cells were prepared. […] Cells were cultured in Dulbecco's Modified Eagles medium (DMEM)/Ham's F12 (50/50) (Gibco BRL, Grand Island, N.Y.; with 15 mM HEPES and 2 mM glutamine) supplemented with 20% fetal bovine serum. Cells were routinely passaged using 0.05% trypsin/0.53 mM EDTA, seeded onto six well plates and used at 80-90% confluence, between passages five to nine.
Cicaprost (100 nM, Schering A G, Berlin, Germany by agreement) was added to MASMC medium just prior to addition of H2O2.
Short term treatment with E2: Cells were washed twice rinsing with RPMI serum free medium and then pre-incubated in 1 ml RPMI serum free medium for 1 hour. […] .
The 8,12-iso-iPF2α-VI was analyzed in 1 ml conditioned medium, adjusted to pH 3, using the same method described for urine samples.

IP [5] = assay: Whole blood platelet aggregation assay; details: 10 nM cicaprost, collagen 2 μg/ml ex vivo
heme oxygenase 1 (HO 1) = assay: Heme oxygenase 1 Western blotting in MASMC; format: cell-based, mouse; details: 100 nM cicaprost, 8 hours, IP-dependent
Experimental: as §3
Heme oxygenase 1 (HO 1) Western Blotting: A polyclonal rabbit anti-heme oxygenase 1 (HO 1, ˜32 kDa) was purchased from Stressgen Biotechnologies, Victoria, BC, Canada. MASMCs were treated with 100 nM cicaprost for 8 hours in RPMI vehicle at 37° C. Control cells were treated with vehicle for the same time period. […] Protein isolated from aortae of high fat fed mice was quantitated by the BioRad DC assay for Western Blotting.

IP [6] = assay: Direct measurement of blood pressure after cicaprost; format: in vivo, mouse; details: cicaprost 1 μg/kg iv, IP−/−
Text: (§4) IPKO and mPGES-1 KO mice: IPKO mice were backcrossed into a C57BL/6 genetic background (Cheng et al., 2002, Science 296: 539). IP^−/−, IP^+/−, and WT littermates were identified in litters generated by the intercross of IP^+/− animals by polymerase chain reaction analysis (PCR) of genomic DNA isolated from tail biopsy samples. Southern blot analysis confirmed the IP gene copy number. mPGES-1 KO mice were kindly provided by Pfizer Inc (New York, N.Y.). They were generated and maintained on the DBA/1 lacJ genetic background (Trebino et al., 2003, Proc. Natl. Acad. Sci. U.S.A. 100: 9044). Heterozygous animals were intercrossed, and the litters were screened by PCR analysis to identify both mPGES-1 KO and wild-type controls. Biochemical and functional analyses in each case were performed on mutant mice and WT littermate controls.
(§5) (iii) Direct measurement of blood pressure: Mice were anesthetized (ketamine 100 mg/kg, acepromazine 5 mg/kg) and placed on a temperature-controlled panel. The right internal jugular vein and left carotid artery were cannulated with PE-10 tubing. The arterial catheter was connected to a Capto SP844 pressure transducer (Capto, Horten, Norway), and blood pressure (BP) was monitored continuously with a Powerlab/8SP system (AD Instruments Inc.), as previously described (Hui et al., 2004, Circulation 110:3360; Rocca et al., 2000, Nat. Med. 6:219). Blood pressure and heart rate were continuously monitored for 20-40 minutes until stable values were obtained. After the equilibration period and the baseline BP was recorded, mice were injected via the right internal jugular vein with cicaprost (1 ug/kg in 4 mL/kg saline) as a bolus, and the same volume of saline was injected before cicaprost administration to exclude volume-mediated BP changes. The BP was continuously recorded until it returned to pretreatment baseline.

IP [7] = target: T1, IP (Mus musculus, UniProt P43252); assay: as above; format: in vivo; details: cicaprost 1 μg/kg iv
T1 construct: from tissue; host or cells: live anesthetized mice (WT, IP+/- and IP-/- littermates, C57BL/6 background); vasculature
Text: as §4, §5

eicosanoid biosynthesis = assay: Urinary eicosanoid analyses in mice; format: in vivo, mouse
Experimental: Mice: In all cases, transgenic mice deficient in the indicated gene were compared with appropriate strain-, age-, and sex-matched control animals. The investigator was unaware of the genotype throughout the experiment. All procedures were approved and animal husbandry was overseen by the Institutional Animal Care and Usage Committee of the University of Pennsylvania.
Eicosanoid analyses: Urinary 2,3-dinor TxB2 and 2,3-dinor 6-keto PGF1α were measured in twenty four hour urines collected in metabolic cages. After extraction and purification by thin layer chromatography, they were analyzed by gas chromatography/mass spectrometry, as previously described (Egan et al., 2005, Circulation 111:334). Urinary PGE-M was measured by LC/MS/MS as follows: First, 10 ng of hexadeuterated PGE-M (9,15-dioxo-11α-hydroxy-2,3,4,5-tetranor-prostan-1,20-dioic-17,17,18,18,19,19-d6 acid; Cayman Chemical Co., Ann Arbor, Mich.) was added to 0.1 ml of mouse urine. Next, 50 μL of methoxyamine HCl, 1 g/L, was added and the sample was mixed and allowed to stand at room temperature for 15 minutes. The sample was then diluted to 1.0 ml with water and extracted on a Strata™-X solid phase extraction (SPE) cartridge (Phenomenex Inc., Torrance, Calif.). The SPE was eluted with 1.0 mL of 5% acetonitrile in ethyl acetate, dried, dissolved in 200 μL 10% acetonitrile in water, and injected for LC/MS/MS analysis. Transitions monitored were m/z 385→336 for the endogenous PGE-M and 391→342 for the internal standard.

mice [8] = details: mouse, in vivo
Experimental: Briefly, mice (12→16 weeks) were anesthetized with sodium pentobarbital (80 mg/kg, intraperitoneally). Following a midline cervical incision, the left common carotid artery was isolated and a Doppler flow probe (Model 0.5 VB, Transonic Systems Co., Ithaca, N.Y.) was applied. The probe was connected to a flowmeter (Transonic Model T105) and interpreted with Powerlab® (AD Instruments, Colorado Springs, Colo.), a computerized data acquisition program. Rose Bengal (Fisher Scientific, Fair Lawn, N.J.) was diluted to phosphate-buffered saline and then injected into the jugular vein in a volume of 0.12 ml at a concentration of 50 mg/kg. Immediately prior to injection, a 1.5-mW green light laser (540 nm) (Melles Griot, Carlsbad, Calif.) was applied to the desired site of injury from a distance of 5 cm carotid artery; blood flow was monitored for 120 minutes or until stable occlusion occurred, after which the mice still showing blood flow were assigned a value of 120 minutes. Stable occlusion was defined as a blood flow of 0 ml/min for 3 minutes.

[9] = Case study of short term valdecoxib use; format: in vivo, human; details: valdecoxib 20 mg b.i.d. Person on oral contraceptive
Experimental: A ventilation-perfusion scan (VQ scan) was performed according to typical hospital procedure. Inhalation of 20.1 millicurie (mCi) of Xenon-133 gas was used for the ventilation scan. Intravenous injection of 4.1 mCi of Tc-99m-labelled MAA was used for the perfusion scan.
A person presented with pulmonary embolism. They had been taking, without complication, Ortho-Tricyclen® (0.180, 0.215, and 0.250 mg norgestimate cycles; 35 microgram (μg) ethinyl estradiol) for two years and Ortho Tri-cyclen® LO (same norgestimate; 25 μg ethinyl estradiol) for 14 months. A non-smoker, they lacked a relevant family history and was vigorously athletic.
One month prior to presentation, they developed neck pain. Disc protrusion at C5-C6 was detected by magnetic resonance imaging (MRI). The patient was prescribed valdecoxib 20 mg b.i.d. for two weeks. Their neck pain resolved. However, towards the end of this two-week treatment period, they developed left-sided pleuritic chest and shoulder pain after a 6 hour car ride. They were commenced on cyclobenzaprine 10 mg b.i.d. and continued on valdecoxib. Their left-sided pain abated gradually. However, 18 days later, they developed right-sided chest and shoulder pain. […]

[10] = small, short-term studies of cardiopulmonary bypass grafting; cited from earlier work
mice [11] = assay: Tail cuff blood pressure measurement; format: in vivo, mouse; details: celecoxib treatment, regular chow diet
Experimental: (i) Tail Cuff measurement: Resting systolic blood was measured in conscious mice (3-4 months old) using a computerized noninvasive tail-cuff system (Visitech Systems, Apex, N.C.). […] Mice were adapted to the system for 14 days; measurements of sessions 25 minutes in length were done once each day between 15:00 and 18:00. After that, blood pressure was recorded daily for 3 consecutive days in the same way. Data were collected and analyzed using updated BP 2000 software (http://www(dot)visitechsystems(dot)com/).

[12] = nimesulide, severe flow reduction

T1 sequence (P43252 1-412 limits assumed): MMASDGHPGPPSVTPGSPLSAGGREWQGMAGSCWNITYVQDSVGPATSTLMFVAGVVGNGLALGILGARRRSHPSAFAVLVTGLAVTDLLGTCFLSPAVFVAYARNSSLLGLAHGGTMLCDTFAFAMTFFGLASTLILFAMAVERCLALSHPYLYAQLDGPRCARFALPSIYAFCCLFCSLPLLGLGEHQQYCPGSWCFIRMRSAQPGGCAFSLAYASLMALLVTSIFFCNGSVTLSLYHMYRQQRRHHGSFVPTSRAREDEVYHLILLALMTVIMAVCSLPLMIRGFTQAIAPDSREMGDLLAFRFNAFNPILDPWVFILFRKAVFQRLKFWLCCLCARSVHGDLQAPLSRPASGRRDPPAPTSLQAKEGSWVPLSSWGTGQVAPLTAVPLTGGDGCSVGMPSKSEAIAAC

Structure (SMILES): CS(=O)(=O)Nc1ccc([N+](=O)[O-])cc1Oc1ccccc1 [nimesulide]
- blood flow in the LC, nimesulide vs vehicle (Male C57BL/6J mice [1]): marked reduction
- urinary PGI-M (Male C57BL/6J mice [2]; nimesulide 40 mg/L in drinking water, chronic, control mice): depressed urinary PGI-M
- urinary 2,3-dinor TxB2 excretion (Male C57BL/6J mice [2]; nimesulide, control conditions): failed to suppress
- excretion of an isoprostane biomarker of lipid peroxidation (Male C57BL/6J mice [2]; nimesulide, control mice): did not alter excretion
- urinary PGI-M (Male C57BL/6J mice [2]; nimesulide, moderate and severe reduction in flow): depressed PGI-M to a similar degree
- oxidant stress, urinary 8,12-iso-iPF2α-VI (Male C57BL/6J mice [2]; [12]): markedly augmented
- platelet activation, urinary 2,3-dinor TxB2 excretion (Male C57BL/6J mice [2]; [12]): markedly augmented
- lumen diameter and external elastic lamina diameter of RCs or LCs (Male C57BL/6J mice [3]; control mice): did not itself affect
- flow dependent reduction in vessel size (luminal and EEL diameter) (Male C57BL/6J mice [3]; moderate or severe flow reduction): failed to alter
- neointimal area, intimal hyperplastic response in LC (Male C57BL/6J mice [3]; severe flow reduction): markedly augmented the intimal hyperplastic response

Structure (SMILES): CCC#CC[C@H](C)[C@H](O)C#C[C@@H]1[C@H]2C/C(=C/COCC(=O)O)C[C@H]2C[C@H]1O [cicaprost]
- response of MASMCs to H2O2, iP generation ([4]; cicaprost 100 nM, H2O2 100 μM 30 min): limits the response
- iP generation from unstimulated cells ([4]; cicaprost, MASMC without H2O2): does not significantly reduce
- platelet aggregation readout, second value printed for IP+/− mice (IP [5]): 100%
- inhibition of platelet aggregation, % of the maximal inhibition observed in WTs (IP [5]; IP+/− mice): 86.7%
- HO 1 protein expression (heme oxygenase 1 (HO 1)): increased expression
- depressor response, MAP (IP [6]): no change in MAP
- maximal decline in mean arterial pressure from pretreatment baseline (IP [6]): 0%
- duration of the depressor response (IP [7]; IP+/−): 5.3 ± 1.1 min
- maximal decline in mean arterial pressure from pretreatment baseline (IP [7]; IP+/−): 24%
- maximal decline in mean arterial pressure from pretreatment baseline (IP [7]; WT): 36±3.5%
- duration of the depressor response (IP [7]; WTs): 10.8 ± 2.5 min

- mean impact on time to occlusion, % of WT value (mice [8]): 56.2%
Structure (SMILES): CC1(C)OC(=O)C(c2cccc(F)c2)=C1c1ccc(S(C)(=O)=O)cc1 [DFU, 5,5-dimethyl-3-(3-fluorophenyl)-4-(4-methylsulphonyl)phenyl-2(5H)-furanone]
- mean depression of urinary 2,3-dinor 6-keto PGF1α from pretreatment values (eicosanoid biosynthesis; DFU, WT mice): 71.2%
- mean depression of urinary PGE-M from pretreatment values (eicosanoid biosynthesis; DFU, WT mice): 52.3%
- urinary 2,3-dinor TxB2 vs pretreatment values (eicosanoid biosynthesis; DFU, WT mice): did not depress
- urinary 2,3-dinor TxB2 (eicosanoid biosynthesis; DFU, WT mice, second value of the printed pair (4.63±1.3 vs.), order not stated): 6.0±1.1 ng/mg creatinine
- urinary 2,3-dinor 6-keto PGF1α (eicosanoid biosynthesis; PGHS-2 inhibition, mice): suppressed substantially
- urinary 2,3-dinor TxB2 (eicosanoid biosynthesis; treatment with PGHS-2 selective inhibitor, mice): unaltered significantly

Structure (SMILES): Cc1onc(-c2ccccc2)c1-c1ccc(S(N)(=O)=O)cc1 [valdecoxib]
- adverse event diagnosed in the patient [9]: left iliac vein thrombosis and bilateral pulmonary emboli
- relative risk of heart attack and stroke [10]: three-fold increase

Structure (SMILES): Cc1ccc(-c2cc(C(F)(F)F)nn2-c2ccc(S(N)(=O)=O)cc2)cc1 [celecoxib]
- blood pressure compared to WT controls (mice [11]): elevated

From patent US7833795B2, “Assessment of cardiovascular risk using isoprostane biomarkers and COX-2 selective inhibitors” (The Trustees of the University of Pennsylvania, priority 2004, dated 2010)
